Values joined by “and” are separate entries in the source; they are usually repeats but may differ in a detail not shown here. Identical values can stand only once. Like-named read-outs stand apart in the source and are kept apart here.
Experiments:
A549 cells [1] = test: CellTiter-Glo viability and CalcuSyn synergy, PRMT5 inhibitor + KRAS G12X inhibitor, 6 days; details: a549 cells, 8640 min, 0.4374 µM
MIAPACA2T2 cells [2] = test: CellTiter-Glo viability and CalcuSyn synergy, PRMT5 inhibitor + KIF18A, 6 days
MIAPACA2T2 cells [3] = test: CellTiter-Glo viability and CalcuSyn synergy, PRMT5 inhibitor + sotorasib, 6 days; details: miapaca2t2 cells, 8640 min, 0.4374 µM
MiaPaCa2 PDAC xenografts = tested on: MiaPaCa2 PDAC xenografts; parameters: species or system Female NOD/SCID mice; details: mouse, in vivo
Description: FIG. 6A: Mice were implanted with LU99 (NSCLC CDX) tumors, FIG. 6B: LU5268 (NSCLC PDX) tumors. FIG. 6C: MiaPaCa2 (PDAC CDX) tumors. Vehicle, Compound G, and sotorasib were dosed as indicated. Data represent mean±SD, n=10 for each group.
10 Female NOD/SCID mice were implanted with LU99 NSCLC, LU5268 NSCLC or MisPaCa2 PDAC tumor xenografts. Mean tumor volumes for each grouping were between 100-200 mm^3. Mice were allocated to the four different study groups by tumor volume and dosing was initiated with Vehicle, Compound G (100 mg/kg), sotorasib (100 mg/kg) orally once daily or a combination of Compound G (100 mg/kg) with sotorasib (100 mg/kg). Plotted data represents the TGI (tumor growth inhibition), n=10 for each group.

A549 cells [4] = test: CellTiter-Glo viability and CalcuSyn synergy, PRMT5 inhibitor + trametinib, 6 days
H292 cells = test: CellTiter-Glo viability and CalcuSyn synergy, PRMT5 inhibitor + palbociclib, 6 days; details: h292 cells, 8640 min, 0.1212 µM
LU99 NSCLC xenografts [5] = details: mouse, in vivo
H1650 cells [6] = type: cell-based
Description: A MTAP-null NSCLC cancer cell line (H1650) was treated with the combination of Compound G and erlotinib for 6 days. Compound G was performed at a 1.9-fold dilution series and the combination partner was performed at 1.2 to 1.7 fold dilution series to create an 8×10 dose matrix including DMSO-only controls. Cell viability was measured by the CellTiter-Glo Luminescence assay. Raw luminescent values were converted to fraction affected (Fa) with the following equation: […]
(§1) Synergy analysis was performed using the CalcuSyn software to determine CI scores based on the drug concentrations used and corresponding Fa values.

LU5268 NSCLC xenografts = details: mouse, in vivo
A549 cells [7] = test: CellTiter-Glo viability and CalcuSyn synergy, PRMT5 inhibitor + palbociclib, 6 days; details: a549 cells, 8640 min, 0.437382 µM
MIAPACA2T2 cells [8] = test: CellTiter-Glo viability and CalcuSyn synergy, PRMT5 inhibitor + trametinib, 6 days
HCC1395 cells = test: CellTiter-Glo viability and CalcuSyn synergy, PRMT5 inhibitor + olaparib, 6 days; details: hcc1395 cells, 8640 min, 0.7673 µM
LU99 NSCLC xenografts [9] = details: mouse, in vivo; remark: listed apart in the source
LU99 cells = test: CellTiter-Glo viability and CalcuSyn synergy, PRMT5 inhibitor + sotorasib, 6 days
H1650 cells [10] = type: cell-based; details: 8640 min, 0.44 µM
Description: A MTAP-null NSCLC cancer cell line (H1650) was treated with the combination of Compound G and osimertinib for 6 days. Compound G was performed at a 1.9-fold dilution series and the combination partner was performed at 1.2 to 1.7 fold dilution series to create an 8×10 dose matrix including DMSO-only controls. Cell viability was measured by the CellTiter-Glo Luminescence assay. Raw luminescent values were converted to fraction affected (Fa) with the following equation: […]
as §1

PSN1 cells = test: CellTiter-Glo viability and CalcuSyn synergy, PRMT5 inhibitor + KIF18A, 6 days; details: psn1 cells, 8640 min, 0.0767 µM

Nc1nc2cnc(C(=O)N3CCOC[C@@H]3c3ccc(C(F)(F)F)cc3)cc2c2c1COC2 [Compound G]
Combination Fa (A549 cells [1]): 0.8549 and 0.7807 and 0.755 and 0.7181 and 0.6897 and 0.833 and 0.8551 | Computed CI value (MIAPACA2T2 cells [2]): 0.561 and 0.6 and 0.594 and 0.774 and 0.68 and 1.044 and 0.802 | Combination Fa (MIAPACA2T2 cells [2]; miapaca2t2 cells, 8640 min, 0.437381 µM): 0.7856 and 0.6938 and 0.6123 and 0.4815 and 0.4538 and 0.85 and 0.8122 | Combination Fa (MIAPACA2T2 cells [3]): 0.818 and 0.785 and 0.712 and 0.633 and 0.519 and 0.829 and 0.84 | tumor growth inhibition (MiaPaCa2 PDAC xenografts): significantly inhibits tumor growth | Computed CI value (A549 cells [4]): 0.276 and 0.365 and 0.349 and 0.48 and 0.512 and 0.43 and 0.384 | Combination Fa (A549 cells [4]; a549 cells, 8640 min, 0.4374 µM): 0.8494 and 0.7817 and 0.7499 and 0.6788 and 0.6495 and 0.894 and 0.8631 | Combination Fa (H292 cells): 0.8154 and 0.7885 and 0.7925 and 0.7748 and 0.7116 and 0.8564 and 0.824 | anti-tumor activity (LU99 NSCLC xenografts [5]): significant anti-tumor activity versus either single agent alone | Computed CI value (H1650 cells [6]): 0.40 and 0.29 and 0.34 and 0.35 and 0.52 and 0.48 | Combination Fa (H1650 cells [6]; h1650 cells, 8640 min, 0.23 µM): 0.73 and 0.67 and 0.64 and 0.59 and 0.79 and 0.75 | tumor growth inhibition (LU5268 NSCLC xenografts): significantly inhibits tumor growth | Combination Fa (A549 cells [7]): 0.717 and 0.713 and 0.732 and 0.683 and 0.682 and 0.86 and 0.735 | Computed CI value (MIAPACA2T2 cells [8]): 0.579 and 0.774 and 0.806 and 0.84 and 0.868 and 0.784 and 0.557 | Combination Fa (MIAPACA2T2 cells [8]; miapaca2t2 cells, 8640 min, 0.83102 µM): 0.792 and 0.69 and 0.63 and 0.583 and 0.551 and 0.868 and 0.85 | Combination Fa (HCC1395 cells): 0.6464 and 0.5971 and 0.5852 and 0.5488 and 0.55 and 0.7334 and 0.6661 | tumor growth inhibition (LU99 NSCLC xenografts [9]): significantly inhibits tumor growth | Computed CI value (LU99 cells): 0.276 and 0.234 and 0.289 and 0.249 and 0.281 and 0.424 and 0.294 | Combination Fa (LU99 cells; lu99 cells, 8640 min, 0.1458 µM): 0.817 and 0.821 and 0.794 and 0.804 and 0.787 and 0.825 | Combination Fa (H1650 cells [10]): 0.74 and 0.73 and 0.69 and 0.67 and 0.66 and 0.88 and 0.76 | Combination Fa (PSN1 cells): 0.858 and 0.868 and 0.837 and 0.811 and 0.781 and 0.923 and 0.86
